According to patent US10638756B2, “Molecules having pesticidal utility, and intermediates, compositions, and processes, related thereto” (Dow AgroSciences LLC, priority 2017, dated 2020):

Experiments:
Type in all cases: in vivo
[1] = system: Beet Armyworm (Spodoptera exigua); assay: Bioassay on Beet Armyworm (BAW), 128-well diet tray assay; conditions: Spodoptera exigua, 168 h; 50 μg/cm^2 on artificial diet, second instar larvae, five to seven days; read-out: BAW % Control (or Mortality) rating
[2] = system: Yellow Fever Mosquito (Aedes aegypti); conditions: about 1 day-old larvae, 3 days, scored on mortality
Method: Certain molecules disclosed in this document were tested against YFM using procedures described in the following paragraph. In the reporting of the results, the “GPA & YFM Rating Table” was used (See Table Section).
Master plates containing 400 μg of a molecule dissolved in 100 μL of dimethyl sulfoxide (DMSO) (equivalent to a 4000 ppm solution) are used. A master plate of assembled molecules contains 15 μL per well. To this plate, 135 μL of a 90:10 water/acetone mixture is added to each well. A robot (Biomek® NXP Laboratory Automation Workstation) is programmed to dispense 15 μL aspirations from the master plate into an empty 96-well shallow plate (“daughter” plate). There are 6 reps (“daughter” plates) created per master. The created “daughter” plates are then immediately infested with YFM larvae.
The day before plates are to be treated, mosquito eggs are placed in Millipore water containing liver powder to begin hatching (4 g. into 400 mL). After the “daughter” plates are created using the robot, they are infested with 220 μL of the liver powder/larval mosquito mixture (about 1 day-old larvae). After plates are infested with mosquito larvae, a non-evaporative lid is used to cover the plate to reduce drying. Plates are held at room temperature for 3 days prior to grading. After 3 days, each well is observed and scored based on mortality. The results are indicated in the table entitled “Table ABC: Biological Results” (See Table Section).

[3] = system: Cabbage Looper (Trichoplusia ni); assay: Bioassay on Cabbage Looper (CL), 128-well diet tray assay; conditions: 168 h, 50 μg/cm^2 on artificial diet, second instar larvae, five to seven days, read-out: CL % Control (or Mortality) rating
In short: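 Activity is mean percent mortality over eight wells of second-instar larvae exposed to diet treated at 50 μg/cm^2 for 5–7 days at 25° C.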

SMILES | mortality at 50 µg/cm2 [1] | YFM % Control (or Mortality) rating [2] | mortality at 50 µg/cm2 [3]
O=C(NNc1ncccn1)c1ccc(/C(F)=C/C(c2ccc(Br)c(Cl)c2)C(F)(F)F)cc1C(F)(F)F (stereo not shown) [F16, (Z)-4-(3-(4-Bromo-3-chlorophenyl)-1,4,4,4-tetrafluorobut-1-en-1-yl)-N′-(pyrimidin-2-yl)-2-(trifluoromethyl)benzohydrazide] | 50 to 100% | A (80-100) | 50 to 100%
CCN(NC(=O)c1ccc(/C(F)=C/C(c2cc(Cl)c(Cl)c(Cl)c2)C(F)(F)F)cc1C(F)(F)F)c1ncccn1 (stereo not shown) [F130, (Z)—N′-Ethyl-N′-(pyrimidin-2-yl)-4-(1,4,4,4-tetrafluoro-3-(3,4,5-trichlorophenyl)but-1-en-1-yl)-2-(trifluoromethyl)benzohydrazide] | 50 to 100% | A (80-100) | 50 to 100%
CN(C)N(CC(=O)NCC(F)(F)F)C(=O)c1ccc(/C(F)=C/C(c2cc(Cl)c(Cl)c(Cl)c2)C(F)(F)F)cc1C(F)(F)F (stereo not shown) [F184, (Z)-2-(2,2-dimethyl-1-(4-(1,4,4,4-tetrafluoro-3-(3,4,5-trichlorophenyl)but-1-en-1-yl)-2-(trifluoromethyl)benzoyl)hydrazinyl)-N-(2,2,2-trifluoroethyl)acetamide] | 50 to 100% | A (80-100) | 50 to 100%
C#CCN(NC(=O)c1ccc(/C(F)=C/C(c2cc(Cl)c(Cl)c(Cl)c2)C(F)(F)F)cc1C)c1ncccn1 (stereo not shown) [F148, (Z)-2-Methyl-N′-(prop-2-yn-1-yl)-N′-(pyrimidin-2-yl)-4-(1,4,4,4-tetrafluoro-3-(3,4,5-trichlorophenyl)but-1-en-1-yl)benzohydrazide] | 50 to 100% | A (80-100) | 50 to 100%
O=C(NNc1ncccn1)c1ccc(/C(F)=C/C(c2ccc(Br)c(C(F)(F)F)c2)C(F)(F)F)cc1C(F)(F)F (stereo not shown) [F78, (Z)-4-(3-(4-Bromo-3-(trifluoromethyl)phenyl)-1,4,4,4-tetrafluorobut-1-en-1-yl)-N′-(pyrimidin-2-yl)-2-(trifluoromethyl)benzohydrazide] | 50 to 100% | A (80-100) | 50 to 100%
O=C(NNc1ccc(C(F)(F)F)cc1)c1ccc(/C(F)=C/C(c2cc(Cl)c(Cl)c(Cl)c2)C(F)(F)F)cc1C(F)(F)F (stereo not shown) [F70, (Z)-4-(1,4,4,4-tetrafluoro-3-(3,4,5-trichlorophenyl)but-1-en-1-yl)-2-(trifluoromethyl)-N′-(4-(trifluoromethyl)phenyl)benzohydrazide] | 50 to 100% |  | 50 to 100%
O=C(NNc1ncccn1)c1ccc(/C(F)=C/C(c2ccc(Cl)c(Br)c2)C(F)(F)F)cc1C(F)(F)F (stereo not shown) [F178, (Z)-4-(3-(3-Bromo-4-chlorophenyl)-1,4,4,4-tetrafluorobut-1-en-1-yl)-N′-(pyrimidin-2-yl)-2-(trifluoromethyl)benzohydrazide] | 50 to 100% |  | 50 to 100%
O=C(NNc1cccc(Br)n1)c1ccc(/C(F)=C/C(c2cc(Cl)c(Cl)c(Cl)c2)C(F)(F)F)cc1C(F)(F)F (stereo not shown) [F165, (Z)—N′-(6-Bromopyridin-2-yl)-4-(1,4,4,4-tetrafluoro-3-(3,4,5-trichlorophenyl)but-1-en-1-yl)-2-(trifluoromethyl)benzohydrazide] | 50 to 100% |  | 50 to 100%
O=C(NNc1cccnc1)c1ccc(/C(F)=C/C(c2cc(Cl)c(Cl)c(Cl)c2)C(F)(F)F)cc1C(F)(F)F (stereo not shown) [F121, (Z)—N′-(Pyridin-3-yl)-4-(1,4,4,4-tetrafluoro-3-(3,4,5-trichlorophenyl)but-1-en-1-yl)-2-(trifluoromethyl)benzohydrazide] | 50 to 100% |  | 50 to 100%
O=C(NNC1CCCCC1)c1ccc(/C(F)=C/C(c2cc(Cl)c(Cl)c(Cl)c2)C(F)(F)F)cc1C(F)(F)F (stereo not shown) [F137, (Z)—N′-Cyclohexyl-4-(1,4,4,4-tetrafluoro-3-(3,4,5-trichlorophenyl)but-1-en-1-yl)-2-(trifluoromethyl)benzohydrazide] | 50 to 100% |  | 50 to 100%
COc1cnc(NNC(=O)c2ccc(/C(F)=C/C(c3cc(Cl)c(Cl)c(Cl)c3)C(F)(F)F)cc2C(F)(F)F)nc1 (stereo not shown) [F90, (Z)—N′-(5-Methoxypyrimidin-2-yl)-4-(1,4,4,4-tetrafluoro-3-(3,4,5-trichlorophenyl)but-1-en-1-yl)-2-(trifluoromethyl)benzohydrazide] | 50 to 100% |  | 50 to 100%
CN(NC(=O)c1ccc(/C(F)=C/C(c2cc(Cl)c(Cl)c(Br)c2)C(F)(F)F)cc1C(F)(F)F)c1ncccn1 (stereo not shown) [F171, (Z)-4-(3-(3-Bromo-4,5-dichlorophenyl)-1,4,4,4-tetrafluorobut-1-en-1-yl)-N′-methyl-N′-(pyrimidin-2-yl)-2-(trifluoromethyl)benzohydrazide] | 50 to 100% |  | 50 to 100%
C#CCN(NC(=O)c1ccc(/C(F)=C/C(c2cc(Cl)c(Cl)c(Cl)c2)C(F)(F)F)cc1C(F)(F)F)c1ncccn1 (stereo not shown) [F150, (Z)—N′-(Prop-2-yn-1-yl)-N′-(pyrimidin-2-yl)-4-(1,4,4,4-tetrafluoro-3-(3,4,5-trichlorophenyl)but-1-en-1-yl)-2-(trifluoromethyl)benzohydrazide] | 50 to 100% |  | 50 to 100%
C=Cc1cc(C(/C=C(\F)c2ccc(C(=O)NNc3ncccn3)c(C(F)(F)F)c2)C(F)(F)F)cc(Cl)c1Cl (stereo not shown) [F168, (Z)-4-(3-(3,4-dichloro-5-vinylphenyl)-1,4,4,4-tetrafluorobut-1-en-1-yl)-N′-(pyrimidin-2-yl)-2-(trifluoromethyl)benzohydrazide] | 50 to 100% |  | 50 to 100%
CN(NC(=O)c1ccc(/C(F)=C/C(c2cc(Cl)c(Cl)c(Cl)c2)C(F)(F)F)cc1C(F)(F)F)c1ncc([N+](=O)[O-])cn1 (stereo not shown) [F164, (Z)—N′-Methyl-N′-(5-nitropyrimidin-2-yl)-4-(1,4,4,4-tetrafluoro-3-(3,4,5-trichlorophenyl)but-1-en-1-yl)-2-(trifluoromethyl)benzohydrazide] | 50 to 100% |  | 50 to 100%
Cc1ccc(NNC(=O)c2ccc(/C(F)=C/C(c3cc(Cl)c(Cl)c(Cl)c3)C(F)(F)F)cc2C(F)(F)F)cc1 (stereo not shown) [F68, (Z)-4-(1,4,4,4-Tetrafluoro-3-(3,4,5-trichlorophenyl)but-1-en-1-yl)-N′-(p-tolyl)-2-(trifluoromethyl)benzohydrazide] | 50 to 100% |  | 50 to 100%
NN(CC(=O)NCC(F)(F)F)C(=O)c1ccc(/C(F)=C/C(c2cc(Cl)c(Cl)c(Cl)c2)C(F)(F)F)cc1C(F)(F)F (stereo not shown) [F149, (Z)-2-(1-(4-(1,4,4,4-tetrafluoro-3-(3,4,5-trichlorophenyl)but-1-en-1-yl)-2-(trifluoromethyl)benzoyl)hydrazinyl)-N-(2,2,2-trifluoroethyl)acetamide] | 50 to 100% |  | 50 to 100%
CN(NC(=O)c1ccc(/C(F)=C/C(c2cc(Cl)c(F)c(Cl)c2)C(F)(F)F)cc1C(F)(F)F)c1ncccn1 (stereo not shown) [F2, (Z)-4-(3-(3,5-Dichloro-4-fluorophenyl)-1,4,4,4-tetrafluorobut-1-en-1-yl)-N′-methyl-N′-(pyrimidin-2-yl)-2-(trifluoromethyl)benzohydrazide] | 50 to 100% |  | 50 to 100%
CC(C)CNNC(=O)c1ccc(/C(F)=C/C(c2cc(Cl)c(Cl)c(Cl)c2)C(F)(F)F)cc1C(F)(F)F (stereo not shown) [F157, (Z)—N′-Isobutyl-4-(1,4,4,4-tetrafluoro-3-(3,4,5-trichlorophenyl)but-1-en-1-yl)-2-(trifluoromethyl)benzohydrazide] | 50 to 100% |  | 50 to 100%
COC(=O)c1scc(C)c1NNC(=O)c1ccc(/C(F)=C/C(c2cc(Cl)c(Cl)c(Cl)c2)C(F)(F)F)cc1C(F)(F)F (stereo not shown) [F15, Methyl (Z)-4-methyl-3-(2-(4-(1,4,4,4-tetrafluoro-3-(3,4,5-trichlorophenyl)but-1-en-1-yl)-2-(trifluoromethyl)benzoyl)hydrazinyl)thiophene-2-carboxylate] | 50 to 100% |  | 50 to 100%
O=C(NNC1CCCC1)c1ccc(/C(F)=C/C(c2cc(Cl)c(Cl)c(Cl)c2)C(F)(F)F)cc1C(F)(F)F (stereo not shown) [F110, (Z)—N′-Cyclopentyl-4-(1,4,4,4-tetrafluoro-3-(3,4,5-trichlorophenyl)but-1-en-1-yl)-2-(trifluoromethyl)benzohydrazide] | 50 to 100% |  | 50 to 100%
O=C(N/N=C/c1ccccc1)c1ccc(/C(F)=C/C(c2cc(Cl)c(Cl)c(Cl)c2)C(F)(F)F)cc1C(F)(F)F (stereo not shown) [F38, N′-((E)-benzylidene)-4-((Z)-1,4,4,4-tetrafluoro-3-(3,4,5-trichlorophenyl)but-1-en-1-yl)-2-(trifluoromethyl)benzohydrazide] | 50 to 100% |  | 50 to 100%
